Tests used:
[1] = test system: pPKB S473 in A2058 cells; test: In-cell Western blot, pPKB S473; assay type: cell-based; conditions: Homo sapiens, 1 hour treatment, signal normalized to α-tubulin
Method: (§1) Cells are fixed with 4% paraformaldehyde for 30 minutes at room temperature, washed 2 times with 1% BSA in PBS, permeabilized with 0.1% Triton X-100 in PBS/1% BSA for 30 minutes at room temperature and blocked with 5% goat serum in PBS/1% BSA/0.1% Triton X-100 for 30 minutes at room temperature. […] Cells are washed 3 times 5 minutes with PBS/1% BSA/0.1% triton and plate scanned with the Odyssey Infrared Scanning system using both 700 and 800 nm channels. […] To correct for background staining in the data analysis wells are treated only with secondary antibodies.
(§2) For data analysis the mean background signal from channel 700 nm and 800 nm are subtracted from each signal in channel 700 nm and 800 nm, respectively.
(§3) IC50 values of each compound are determined by plotting the normalized pPBK S473 and pS6 S235/S236 signals, respectively, versus the compound concentrations (in logarithmic scale) and then by fitting a sigmoidal dose-response curve with variable slope to the data using GraphPad™ Prism.

[2] = test system: pS6 S235/S236 in A2058 cells; test: In-cell Western blot, pS6 S235/S236; assay type: cell-based; conditions: Homo sapiens, 1 hour treatment, signal normalized to α-tubulin
Method: as §1, §2, §3

[3] = target: P110α (Homo sapiens, UniProt P42336); test: P110α IC50 (Table 12, comparative biological activities); assay type: biochemical
P110α, sequence (P42336 whole entry, species assumed): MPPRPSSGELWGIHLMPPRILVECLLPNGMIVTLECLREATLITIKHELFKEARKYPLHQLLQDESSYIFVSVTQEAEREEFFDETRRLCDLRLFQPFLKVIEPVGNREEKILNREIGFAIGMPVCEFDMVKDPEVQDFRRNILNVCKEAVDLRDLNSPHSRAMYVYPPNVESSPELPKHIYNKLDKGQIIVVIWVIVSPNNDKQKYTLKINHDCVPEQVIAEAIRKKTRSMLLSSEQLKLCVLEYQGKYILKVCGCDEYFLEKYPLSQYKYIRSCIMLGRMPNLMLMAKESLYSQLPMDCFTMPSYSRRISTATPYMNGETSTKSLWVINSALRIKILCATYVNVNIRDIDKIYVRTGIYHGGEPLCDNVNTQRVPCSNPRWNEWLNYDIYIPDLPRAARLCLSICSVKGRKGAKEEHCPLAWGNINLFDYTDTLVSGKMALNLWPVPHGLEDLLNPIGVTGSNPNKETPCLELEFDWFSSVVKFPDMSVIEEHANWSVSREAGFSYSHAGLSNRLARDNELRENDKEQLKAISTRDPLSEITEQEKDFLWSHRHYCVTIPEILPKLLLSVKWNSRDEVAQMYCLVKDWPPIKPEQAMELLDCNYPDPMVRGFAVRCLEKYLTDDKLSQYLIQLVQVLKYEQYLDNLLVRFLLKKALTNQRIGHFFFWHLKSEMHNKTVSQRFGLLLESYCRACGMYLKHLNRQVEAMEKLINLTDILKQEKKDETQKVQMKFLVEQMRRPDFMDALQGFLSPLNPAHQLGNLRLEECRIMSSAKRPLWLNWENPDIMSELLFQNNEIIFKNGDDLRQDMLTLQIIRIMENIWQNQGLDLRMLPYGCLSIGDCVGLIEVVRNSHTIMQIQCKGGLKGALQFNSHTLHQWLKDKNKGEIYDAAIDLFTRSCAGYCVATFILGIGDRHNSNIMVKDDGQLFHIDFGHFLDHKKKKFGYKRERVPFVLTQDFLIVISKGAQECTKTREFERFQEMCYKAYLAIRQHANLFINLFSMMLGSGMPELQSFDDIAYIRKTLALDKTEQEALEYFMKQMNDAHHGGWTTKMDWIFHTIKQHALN
P110α, sequence (P27986 whole entry partner, species assumed): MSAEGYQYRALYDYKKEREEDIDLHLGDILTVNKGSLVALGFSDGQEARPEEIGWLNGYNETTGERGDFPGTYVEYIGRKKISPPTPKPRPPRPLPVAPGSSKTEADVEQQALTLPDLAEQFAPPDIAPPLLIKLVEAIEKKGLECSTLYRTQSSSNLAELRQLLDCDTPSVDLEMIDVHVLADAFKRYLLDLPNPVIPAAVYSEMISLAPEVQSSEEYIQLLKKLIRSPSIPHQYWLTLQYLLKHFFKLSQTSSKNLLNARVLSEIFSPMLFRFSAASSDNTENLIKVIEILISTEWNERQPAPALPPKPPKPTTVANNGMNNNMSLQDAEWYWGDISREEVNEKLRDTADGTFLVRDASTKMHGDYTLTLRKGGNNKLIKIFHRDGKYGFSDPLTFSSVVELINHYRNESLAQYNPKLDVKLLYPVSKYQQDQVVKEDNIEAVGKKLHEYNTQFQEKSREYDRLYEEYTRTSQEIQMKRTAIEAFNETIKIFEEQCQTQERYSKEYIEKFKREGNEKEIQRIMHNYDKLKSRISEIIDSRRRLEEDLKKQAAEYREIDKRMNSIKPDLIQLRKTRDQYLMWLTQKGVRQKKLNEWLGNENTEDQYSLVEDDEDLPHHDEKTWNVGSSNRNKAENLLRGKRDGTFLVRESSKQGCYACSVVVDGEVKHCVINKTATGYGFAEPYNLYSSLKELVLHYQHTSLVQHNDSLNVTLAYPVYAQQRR

Compound	IC50 ([1]; A2058, 1 h)	IC50 ([2]; A2058, 1 h)	IC50 [3]	IC50 [1]	IC50 [2]
C[C@H]1COCCN1c1cc(-c2cnc(N)nc2C(F)F)nc(N2CCOCC2)n1	0.077 µM	0.146 µM	–	–	–
Nc1cc(C(F)(F)F)c(-c2nc(N3CCOCC3)nc(N3CCSCC3)n2)cn1 [reference compound]	0.311 µM	0.559 µM	–	–	–
Nc1ncc(-c2nc(N3CCOCC3)nc(N3CCSCC3)n2)c(C(F)(F)F)n1 [reference compound]	0.343 µM	0.996 µM	–	–	–
Nc1cc(C(F)(F)F)c(-c2nc(N3CCNCC3)nc(N3CCOCC3)n2)cn1 [reference compound]	0.302 µM	0.743 µM	–	–	–
C[C@H]1COCCN1c1nc(-c2cnc(N)cc2C(F)F)nc(N2CCOC[C@@H]2C)n1	0.155 µM	0.215 µM	–	–	–
Nc1ncc(-c2nc(N3CCOCC3)nc(N3CCOCC3=O)n2)c(C(F)F)n1 [Example 36, 4-[4-[2-amino-4-(difluoromethyl)pyrimidin-5-yl]-6-morpholino-1,3,5-triazin-2-yl]morpholin-3-one]	0.099 µM	0.153 µM	–	–	–
Nc1cc(C(F)(F)F)c(-c2nc(N3CCOCC3)nc(N3CCOCC3)n2)cn1	0.149 µM	0.34 µM	–	–	–
C[C@H]1OC(=O)N(c2nc(-c3cnc(N)nc3C(F)F)nc(N3CCOCC3)n2)[C@H]1CO	0.1 µM	–	0.161 µM	–	–
C[C@H]1COCCN1c1nc(-c2cnc(N)cc2C(F)(F)F)nc(N2CCOC[C@@H]2C)n1	0.255 µM	0.433 µM	–	–	–
Nc1ncc(-c2nc(N3CCOCC3)cc(N3CCOCC3)n2)c(C(F)F)n1	–	0.147 µM	–	–	–
C[C@H]1OC(=O)N(c2nc(-c3cnc(N)nc3C(F)(F)F)nc(N3CCOCC3)n2)[C@H]1CO [reference compound]	0.689 µM	–	1.86 µM	–	–
C[C@H]1COCCN1c1nc(-c2cnc(N)nc2C(F)(F)F)nc(N2CCOC[C@@H]2C)n1	0.118 µM	0.224 µM	–	–	–
Nc1ncc(-c2nc(N3CCNCC3)nc(N3CCOCC3)n2)c(C(F)(F)F)n1 [reference compound]	0.116 µM	0.416 µM	–	–	–
C[C@@H]1COCCN1c1nc(-c2cnc(N)cc2C(F)F)nc(-c2cnc(N)cc2C(F)F)n1 [Example 43, 5-[4-[6-amino-4-(difluoromethyl)-3-pyridyl]-6-[(3R)-3-methylmorpholin-4-yl]-1,3,5-triazin-2-yl]-4-(difluoromethyl)pyridin-2-amine]	–	–	–	0.383 µM	0.154 µM
Nc1cc(C(F)F)c(-c2nc(N3CCOCC3)nc(N3CCOCC3=O)n2)cn1 [Example 35, 4-[4-[6-amino-4-(difluoromethyl)-3-pyridyl]-6-morpholino-1,3,5-triazin-2-yl]morpholin-3-one]	0.207 µM	0.229 µM	–	–	–
C[C@H]1COCCN1c1nc(-c2cnc(N)nc2C(F)F)nc(N2CCOC[C@@H]2C)n1	–	0.097 µM	–	–	–

Reference: patent publication US11186591B2, “Difluoromethyl-aminopyridines and difluoromethyl-aminopyrimidines” (TORQUR AG, priority 2014, dated 2021)
